Active and inactive are the calls of the source. The calls are words filed in the database; no cut-off is given here.
Tests used:
[1] = tested on: Staphylococcus aureus; assay: Antibacterial activity against Staphylococcus aureus ATCC 25923 at sub-MIC measured after 4 days; format: functional, organism-based; conditions: time 4.0 day
[2] = tested on: Pseudomonas aeruginosa; assay: Antibacterial activity against Pseudomonas aeruginosa ATCC 27853 at sub-MIC measured after 2 days; format: functional, organism-based; conditions: time 2.0 day
[3] = tested on: Staphylococcus aureus; assay: Antibacterial activity against Staphylococcus aureus ATCC 25923 incubated for 18 to 24 hrs by broth microdilution method; format: functional; conditions: time 18-24 hrs
[4] = tested on: Bacillus subtilis; assay: Antibacterial activity against Bacillus subtilis ATCC 23857 incubated for 18 to 24 hrs by broth microdilution method; format: functional; conditions: time 18-24 hrs
[5] = tested on: Erythrocyte; assay: Hemolytic activity in mouse red blood cell assessed as hemolysis incubated for 1 hr; format: toxicity, cell-based
[6] = tested on: Klebsiella pneumoniae; assay: Antibacterial activity against Klebsiella pneumoniae ATCC 700603 incubated for 18 to 24 hrs by broth microdilution method; format: functional; conditions: time 18-24 hrs
[7] = tested on: Pseudomonas aeruginosa; assay: Antibacterial activity against Pseudomonas aeruginosa ATCC 27853 incubated for 18 to 24 hrs by broth microdilution method; format: functional; conditions: time 18-24 hrs
[8] = tested on: Staphylococcus aureus; assay: Antibacterial activity against Staphylococcus aureus ATCC 25923 assessed as fold increase in MIC pretreated with Zncl2 followed by compound addition and measured after 2 hrs by broth microdilution method; format: functional
[9] = tested on: Staphylococcus aureus; assay: Antibacterial activity against Staphylococcus aureus ATCC 25923 assessed as fold increase in MIC pretreated with Na-cl followed by compound addition and measured after 2 hrs by broth microdilution method; format: functional
[10] = tested on: Enterococcus faecalis; assay: Antibacterial activity against Enterococcus faecalis ATCC 29212 incubated for 18 to 24 hrs by broth microdilution method; format: functional; conditions: time 18-24 hrs
[11] = tested on: Acinetobacter baumannii; assay: Antibacterial activity against Acinetobacter baumannii ATCC 19606 incubated for 18 to 24 hrs by broth microdilution method; format: functional; conditions: time 18-24 hrs
[12] = tested on: Escherichia coli; assay: Antibacterial activity against Escherichia coli ATCC 25922 incubated for 18 to 24 hrs by broth microdilution method; format: functional; conditions: time 18-24 hrs
[13] = tested on: Staphylococcus epidermidis; assay: Antibacterial activity against Staphylococcus epidermidis ATCC 12228 incubated for 18 to 24 hrs by broth microdilution method; format: functional; conditions: time 18-24 hrs
[14] = tested on: Staphylococcus aureus; assay: Antibacterial activity against Staphylococcus aureus ATCC 25923 at sub-MIC measured after 5 days; format: functional, organism-based; conditions: time 5.0 day
[15] = tested on: Pseudomonas aeruginosa; assay: Antibacterial activity against Pseudomonas aeruginosa ATCC 27853 at sub-MIC measured after 3 days; format: functional, organism-based; conditions: time 3.0 day
[16] = Toxicity in male BALB/c mouse assessed as cell necrosis in liver at 19.45 mg/kg, ip administered as single dose by H and E staining based analysis; format: organism-based; conditions: in vivo
[17] = Toxicity in male BALB/c mouse assessed as hemorrhage in lung at 19.45 mg/kg, ip administered as single dose by H and E staining based analysis; format: organism-based; conditions: in vivo
[18] = Toxicity in male BALB/c mouse assessed as massive edema in kidney at 19.45 mg/kg, ip administered as single dose by H and E staining based analysis; format: organism-based; conditions: in vivo
[19] = Toxicity in male BALB/c mouse assessed as lethal dose administered as ip measured after 7 days; format: organism-based; conditions: in vivo, ip, 168 h, time 7 day
[20] = Toxicity in male BALB/c mouse assessed as hemorrhage in kidney at 19.45 mg/kg, ip administered as single dose by H and E staining based analysis; format: organism-based; conditions: in vivo
[21] = Toxicity in male BALB/c mouse assessed as survival rate at 15 mg/kg, ip measured after 7 days relative to control; format: organism-based; conditions: in vivo, 168 h, time 7 day
[22] = Toxicity in male BALB/c mouse assessed as cellular infiltration in lung at 19.45 mg/kg, ip administered as single dose by H and E staining based analysis; format: organism-based; conditions: in vivo
[23] = Toxicity in male BALB/c mouse assessed as hemorrhage in liver at 19.45 mg/kg, ip administered as single dose by H and E staining based analysis; format: organism-based; conditions: in vivo
[24] = Toxicity in male BALB/c mouse assessed as alveolar shrinkage in lung at 19.45 mg/kg, ip administered as single dose by H and E staining based analysis; format: organism-based; conditions: in vivo
[25] = Toxicity in male BALB/c mouse assessed as hemorrhage in spleen at 19.45 mg/kg, ip administered as single dose by H and E staining based analysis; format: organism-based; conditions: in vivo
[26] = Toxicity in male BALB/c mouse assessed as survival rate at 23.8 to 30 mg/kg, ip measured within 30 mins relative to control; format: organism-based; conditions: in vivo, 0.5 h, dose 23.8-30 mg/kg
[27] = Toxicity in male BALB/c mouse assessed as cellular infiltration in spleen at 19.45 mg/kg, ip administered as single dose by H and E staining based analysis; format: organism-based; conditions: in vivo
[28] = Toxicity in male BALB/c mouse assessed as cellular infiltration in kidney at 19.45 mg/kg, ip administered as single dose by H and E staining based analysis; format: organism-based; conditions: in vivo
[29] = Toxicity in male BALB/c mouse assessed as cellular infiltration in liver at 19.45 mg/kg, ip administered as single dose by H and E staining based analysis; format: organism-based; conditions: in vivo

Row | Compound | MIC [3] | MIC [4] | MHC [5] | MIC [6] | MIC [7] | MIC [10] | MIC [11] | MIC [12] | MIC [13] | also measured
1 | CO[C@H]1/C=C/O[C@@]2(C)Oc3c(C)c(O)c4c(O)c(c(/C=N/N5CCN(C)CC5)c(O)c4c3C2=O)NC(=O)/C(C)=C\C=C\[C@H](C)[C@H](O)[C@@H](C)[C@@H](O)[C@@H](C)[C@H](OC(C)=O)[C@@H]1C | – | – | – | – | – | – | – | – | – | Activity [1]: inactive; Activity [2]: inactive
2 | CCC(C)CCC(=O)N[C@H](CC(N)=O)C(=O)N[C@H](Cc1c[nH]c2ccccc12)C(=O)N[C@H](Cc1c[nH]c2ccccc12)C(=O)N[C@H](CCCN)C(=O)N[C@@H](CCCN)C(=O)NCC(=O)N[C@H](CCCN)C(=O)N[C@@H](Cc1c[nH]c2ccccc12)C(=O)N[C@@H]1C(=O)N[C@@H]([C@@H](C)CC)C(=O)NCC(=O)N[C@@H](CO)C(=O)O[C@@H]1C (mixture of isomers) | 32 µM | 16 µM | 64 µM | 8 µM | 4 µM | 128 µM | 32 µM | 8 µM | 32 µM | fold change (FC) [8]: 4; fold change (FC) [9]: 4
3 | CCC(C)CCC(=O)N[C@H](CC(N)=O)C(=O)N[C@H](Cc1ccc(O)cc1)C(=O)N[C@H](Cc1c[nH]c2ccccc12)C(=O)N[C@H](CCCN)C(=O)N[C@@H](CCCN)C(=O)NCC(=O)N[C@H](C)C(=O)N[C@@H](Cc1c[nH]c2ccccc12)C(=O)N[C@@H]1C(=O)N[C@@H]([C@@H](C)CC)C(=O)NCC(=O)N[C@@H](CO)C(=O)O[C@@H]1C (mixture of isomers) | 32 µM | 16 µM | 32 µM | 16 µM | 16 µM | 64 µM | 8 µM | 8 µM | 32 µM | –
4 | CCC(C)CCC(=O)N[C@H](CC(N)=O)C(=O)N[C@H](Cc1ccc(O)cc1)C(=O)N[C@H](Cc1c[nH]c2ccccc12)C(=O)N[C@H](CCCN)C(=O)N[C@@H](CCCN)C(=O)N[C@@H](CCCN)C(=O)N[C@H](CCCN)C(=O)N[C@@H](Cc1c[nH]c2ccccc12)C(=O)N[C@@H]1C(=O)N[C@@H]([C@@H](C)CC)C(=O)NCC(=O)N[C@@H](CO)C(=O)O[C@@H]1C (mixture of isomers) | 32 µM | 8 µM | 128 µM | 2 µM | 1 µM | 128 µM | 8 µM | 2 µM | 16 µM | –
5 | CCC(C)CCC(=O)N[C@H](CC(N)=O)C(=O)N[C@H](Cc1ccc(O)cc1)C(=O)N[C@H](Cc1c[nH]c2ccccc12)C(=O)N[C@H](CCCN)C(=O)N[C@@H](C)C(=O)NCC(=O)N[C@H](CCCN)C(=O)N[C@@H](Cc1c[nH]c2ccccc12)C(=O)N[C@@H]1C(=O)N[C@@H]([C@@H](C)CC)C(=O)NCC(=O)N[C@@H](CO)C(=O)O[C@@H]1C (mixture of isomers) | 32 µM | 16 µM | 64 µM | 8 µM | 4 µM | 64 µM | 8 µM | 8 µM | 32 µM | –
6 | CCC(C)CCC(=O)N[C@H](CCCN)C(=O)N[C@H](Cc1ccc(O)cc1)C(=O)N[C@H](Cc1c[nH]c2ccccc12)C(=O)N[C@H](CCCN)C(=O)N[C@@H](CCCN)C(=O)NCC(=O)N[C@H](CCCN)C(=O)N[C@@H](Cc1c[nH]c2ccccc12)C(=O)N[C@@H]1C(=O)N[C@@H]([C@@H](C)CC)C(=O)NCC(=O)N[C@@H](CO)C(=O)O[C@@H]1C (mixture of isomers) | 32 µM | 4 µM | 128 µM | 2 µM | 1 µM | 64 µM | 8 µM | 4 µM | 16 µM | –
7 | CCC(C)CCC(=O)N[C@H](CC(N)=O)C(=O)N[C@H](Cc1ccc(O)cc1)C(=O)N[C@H](Cc1c[nH]c2ccccc12)C(=O)N[C@H](C)C(=O)N[C@@H](CCCN)C(=O)NCC(=O)N[C@H](CCCN)C(=O)N[C@@H](Cc1c[nH]c2ccccc12)C(=O)N[C@@H]1C(=O)N[C@@H]([C@@H](C)CC)C(=O)NCC(=O)N[C@@H](CO)C(=O)O[C@@H]1C (mixture of isomers) | 32 µM | 16 µM | 64 µM | 8 µM | 8 µM | 32 µM | 8 µM | 8 µM | 32 µM | –
8 | GENTAMICIN | – | – | – | – | – | – | – | – | – | Activity [14]: inactive; Activity [15]: inactive
9 | POLYMYXIN B | – | – | 128 µM | – | – | – | – | – | – | Activity [16]: Toxic; Activity [17]: Toxic; Activity [18]: Toxic; LD50 [19]: 19.45 mg/kg; Activity [20]: Toxic; Survival [21]: 100%; Activity [22]: Toxic; Activity [23]: Toxic; Activity [24]: Toxic; Activity [25]: Toxic; Survival [26]: 0%; Activity [27]: Toxic; Activity [28]: Toxic; Activity [29]: Toxic

Source: ChEMBL document CHEMBL5512645, “A novel antimicrobial peptide with broad-spectrum and exceptional stability derived from the natural peptide Brevicidine” (Eur J Med Chem, 2024)
